The record followed here is patent publication US20040259926A1, “3-Aryloxy and 3-heteroaryloxy substituted benzo[b]thiophenes as therapeutic agents” (priority 2003, published 2004).

pIC50: −log10 of the molar value.

The target in the assay is T1, PI3Kγ (recombinant p101/p110γ protein) (Homo sapiens, UniProt P48736).
T1 construct: HA; made in house; host or cells: Spodoptera frugiperda (Sf9) cells, baculovirus co-infection
T1 sequence (P48736 whole entry, species assumed): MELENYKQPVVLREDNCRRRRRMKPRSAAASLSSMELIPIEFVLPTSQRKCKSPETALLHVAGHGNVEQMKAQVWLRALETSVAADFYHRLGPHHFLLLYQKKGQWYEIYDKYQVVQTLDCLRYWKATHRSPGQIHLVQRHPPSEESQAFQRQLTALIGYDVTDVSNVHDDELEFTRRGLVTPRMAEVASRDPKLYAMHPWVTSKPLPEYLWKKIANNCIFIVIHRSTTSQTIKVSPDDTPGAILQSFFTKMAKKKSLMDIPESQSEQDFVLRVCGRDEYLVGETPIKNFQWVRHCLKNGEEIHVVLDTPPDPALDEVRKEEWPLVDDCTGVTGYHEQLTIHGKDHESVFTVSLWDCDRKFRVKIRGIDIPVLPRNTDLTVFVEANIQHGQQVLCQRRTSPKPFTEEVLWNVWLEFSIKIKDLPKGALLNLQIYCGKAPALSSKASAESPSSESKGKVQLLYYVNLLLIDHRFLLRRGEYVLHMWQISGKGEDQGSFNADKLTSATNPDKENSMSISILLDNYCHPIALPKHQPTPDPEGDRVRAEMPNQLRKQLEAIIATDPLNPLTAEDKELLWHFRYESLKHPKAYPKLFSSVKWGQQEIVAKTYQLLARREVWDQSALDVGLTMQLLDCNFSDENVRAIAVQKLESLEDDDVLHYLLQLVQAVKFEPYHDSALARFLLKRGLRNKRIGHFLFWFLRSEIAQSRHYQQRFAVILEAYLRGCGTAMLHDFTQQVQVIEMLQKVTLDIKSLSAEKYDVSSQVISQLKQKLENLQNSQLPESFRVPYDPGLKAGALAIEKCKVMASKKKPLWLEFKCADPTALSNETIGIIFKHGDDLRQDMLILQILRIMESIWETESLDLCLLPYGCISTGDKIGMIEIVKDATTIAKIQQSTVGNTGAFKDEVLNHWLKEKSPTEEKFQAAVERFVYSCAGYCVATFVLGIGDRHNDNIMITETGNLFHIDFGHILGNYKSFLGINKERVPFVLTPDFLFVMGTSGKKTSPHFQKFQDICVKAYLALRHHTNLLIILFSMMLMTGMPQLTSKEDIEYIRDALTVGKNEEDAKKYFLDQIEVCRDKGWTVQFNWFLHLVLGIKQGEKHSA
T1 sequence (Q8WYR1 whole entry partner, species assumed): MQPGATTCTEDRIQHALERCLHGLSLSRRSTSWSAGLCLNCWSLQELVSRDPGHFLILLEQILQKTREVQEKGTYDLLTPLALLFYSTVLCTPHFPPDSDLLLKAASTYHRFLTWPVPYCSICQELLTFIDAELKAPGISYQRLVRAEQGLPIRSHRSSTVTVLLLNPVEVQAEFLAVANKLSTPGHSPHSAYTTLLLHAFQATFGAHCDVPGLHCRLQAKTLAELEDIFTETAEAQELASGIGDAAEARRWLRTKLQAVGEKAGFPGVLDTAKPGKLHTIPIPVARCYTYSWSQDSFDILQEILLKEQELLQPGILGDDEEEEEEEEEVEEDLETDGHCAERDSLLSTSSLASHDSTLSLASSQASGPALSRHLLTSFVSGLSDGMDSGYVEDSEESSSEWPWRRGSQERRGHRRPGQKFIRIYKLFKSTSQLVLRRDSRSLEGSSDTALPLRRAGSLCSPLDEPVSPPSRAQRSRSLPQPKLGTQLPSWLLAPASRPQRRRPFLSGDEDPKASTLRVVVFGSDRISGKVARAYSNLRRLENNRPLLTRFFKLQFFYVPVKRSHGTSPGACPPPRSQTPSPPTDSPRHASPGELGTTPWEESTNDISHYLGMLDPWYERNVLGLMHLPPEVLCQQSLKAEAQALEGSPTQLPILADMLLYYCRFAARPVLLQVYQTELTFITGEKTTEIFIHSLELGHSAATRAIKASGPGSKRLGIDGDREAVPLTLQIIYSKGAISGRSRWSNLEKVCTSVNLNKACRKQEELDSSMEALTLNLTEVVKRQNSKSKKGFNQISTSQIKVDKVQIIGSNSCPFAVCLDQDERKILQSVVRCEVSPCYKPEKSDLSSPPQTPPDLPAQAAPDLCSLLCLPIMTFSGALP
Kind of assay: PI3Kγ In Vitro Kinase Assay. The settings on record: purified recombinant p101/p110γ with G protein β1/γ2 subunits; 20 μM ATP, [γ-32P-ATP]; 25 μM PIP2 lipid micelles; 20 minutes at room temperature. The assay is classed as biochemical. The protocol:
Spodtera frugiperda cells, grown in ESF921 media, were coinfected with baculovirus expressing a glu-tagged […] and baculovirus expressing an HA-tagged p110γ, at a 3:1 ratio of p101 baculovirus to p110γ baculovirus. Sf9 cells were grown to 1×10^7 total cells/mL in 10 L bioreactors and harvested 48-72 hours post infection. Samples of infected cells were then tested for expression of p101/p110γ PI3 kinase by immunoprecipitation and Western Blot analysis methods (see below).
To purify PI3Kγ, 4 volumes of room temperature hypotonic lysis buffer (1 mM MgCl2, 1 mM DTT, 5 mM EGTA, 1 mM Pefabloc, 0.5 μM aprotinin, 5 μM leupeptin, 2 μM pepstatin, 5 μM E64, pH 8) per gram of cell paste, was poured onto frozen cell pellets with stirring, then lysed in a nitrogen “bomb” at 400 psi (599 HC T316, Parr Instrument Co, Moline, Ill.). NaCl was added to 150 mM, and sodium cholate was added to 1% and mixed for another 45 minutes. The lysates were clarified by centrifugation for 25 minutes at 14,000 rpm. The lysates were then loaded over anti-glu-linked Protein-G Sepaharose beads (Covance Research Products, Richmond, Calif.) using 20 mL resin/50 g cell paste. The column was washed with 15 volumes of wash buffer (1 mM DTT, 0.2 mM EGTA, 1 mM Pefabloc, 0.5 μM aprotinin, 5 μM leupeptin, 2 μM pepstatin, 5 μM E64, 150 mM NaCl, 1% sodium cholate, pH 8). PI3Kγ was eluted with 6 column volumes of wash buffer that contain 100 μg/mL of a peptide that competes for binding of the glu tag. The column fractions with the eluted protein (determined by taking OD280 readings) were collected and dialyzed in 0.2 mM EGTA, 1 mM DTT, 1 mM Pefabloc, 5 μM leupeptin, 0.5% sodium cholate, 150 mM NaCl, and 50% glycerol, pH 8. The fractions were stored at −80° C. until further use.
Spodtera frugiperda cells were coinfected with baculovirus expressing a glu-tagged G protein β1 and baculovirus expressing a G protein β2 at a 1:1 ratio of glu-tagged G protein β1 baculovirus to G protein β2 baculovirus. Sf9 cells are grown in 10 L bioreactors and harvested 48-72 hours post infection. Samples of infected cells were tested for G protein β1/β2 expression by Western Blot analysis, as described below. Cell lysates were homogenized and loaded onto a column of glu-tagged beads as in Biological Example 1 and competed off the column with a glu peptide and processed as described in Biological Example 1.
The inhibitory properties of the compounds in Table 1 were assayed in an in vitro PI3K assay. In a 96-well polypropylene plate, each well was spotted with 2 μL of 50 times the desired final concentration of compound in DMSO. Purified recombinant p101/p110γ protein (0.03 μg; ˜2.7 nM) and G protein β1/γ2 subunits (0.09 μg; ˜57.7 nM) for each reaction was combined in the assay buffer (30 mM HEPES, 100 mM NaCl, 1 mM EGTA, and 1 mM DTT). ATP and [γ-^32P-ATP] (0.09 μCi) were added to this mixture so that the final ATP concentration in the reaction was 20 μM. Lipid micelles were formed by sonicating phosphatidylinositol-4,5-diphosphate (PIP2), phosphatidylethanolamine (PE), and Na-cholate in the assay buffer for 10 minutes, adding MgCl2 and incubating on ice for 20 minutes, for final concentrations of 25 μM PIP2, 300 μM PE, 0.02% Na-cholate, and 10 mM MgCl2 in the reaction. The reactions were started by adding equal volumes lipid and enzyme mixture in a total volume of 50 μL, allowed to run for 20 minutes at room temperature, and stopped with 100 μL 75 mM H3PO4. The lipid product was transferred to a glass fiber filter plate and washed with 75 mM H3PO4 several times. The presence of radioactive lipid product (PIP3) was measured by adding Wallac Optiphase mix to each well and counting in a Wallac 1450 Trilux plate reader (PerkinElmer Life Sciences Inc., Boston, Mass. 02118). The IC50 for each compound tested is reported in μM in Table 1: […]
`COc1cc2c(Oc3ccc(C4CCCCC4)cc3C#N)c(C(=O)Nc3nn[nH]n3)sc2cc1C` [Example B.75, 3-(2-Cyano-4-cyclohexyl-phenoxy)-5-methoxy-6-methyl-benzo[b]thiophene-2-carboxylic acid (2H-tetrazol-5-yl)-amide]: the pIC50 was 8.22.

As to `COc1cc2c(Oc3ccc(C4CCCCC4)cc3C)c(C(=O)Nc3nn[nH]n3)sc2cc1C` [Example B.28, 3-(4-Cyclohexyl-2-methyl-phenoxy)-5-methoxy-6-methyl-benzo[b]thiophene-2-carboxylic acid (2H-tetrazol-5-yl)-amide], the pIC50 is 7.21. On to `COc1cc2c(Oc3ccc(F)cc3)c(C(=O)Nc3nn[nH]n3)sc2cc1C` [Example B.39, 3-(4-Fluoro-phenoxy)-5-methoxy-6-methyl-benzo[b]thiophene-2-carboxylic acid (2H-tetrazol-5-yl)-amide], for which the negative-log IC50 (pIC50) is 7.74.

Take `COc1cc2c(Oc3ccc(Cl)cc3F)c(C(=O)Nc3nn[nH]n3)sc2cc1C` [Example B.40, 3-(4-Chloro-2-fluoro-phenoxy)-5-methoxy-6-methyl-benzo[b]thiophene-2-carboxylic acid (2H-tetrazol-5-yl)-amide]: the negative logarithm of the IC50 (pIC50) was 7.66. `COc1cc2c(Oc3ccc(S(C)(=O)=O)cc3)c(C(=O)Nc3nn[nH]n3)sc2cc1C` [Example B.47, 3-(4-Methanesulfonyl-phenoxy)-5-methoxy-6-methyl-benzo[b]thiophene-2-carboxylic acid (2H-tetrazol-5-yl)-amide]: the pIC50 is 7.24. “3-[4-(Cyclohexyl-piperidin-1-yl-methyl)-phenoxy]-5-methoxy-6-methyl-benzo[b]thiophene-2-carboxylic acid (2H-tetrazol-5-yl)-amide [Example B.48]”: the pIC50 is 6.15. With `Cc1cc2sc(C(=O)Nc3nn[nH]n3)c(Oc3ccc(C4CCCCC4)cc3)c2cc1O` [Example H.1, 3-(4-Cyclohexyl-phenoxy)-5-hydroxy-6-methyl-benzo[b]thiophene-2-carboxylic acid (2H-tetrazol-5-yl)-amide], the negative-log IC50 (pIC50) was 7.55. The same measure for `COc1cc2sc(C(=O)Nc3nn[nH]n3)c(Oc3cccc(C#N)c3)c2cc1C` [Example D.3, 3-(3-Cyano-phenoxy)-6-methoxy-5-methyl-benzo[b]thiophene-2-carboxylic acid (2H-tetrazol-5-yl)-amide]: 6.56; for `COc1cc2c(Oc3ccc(C4CCCCC4)cc3N)c(C(=O)Nc3nn[nH]n3)sc2cc1C` [Example B.71, 3-(2-Amino-4-cyclohexyl-phenoxy)-5-methoxy-6-methyl-benzo[b]thiophene-2-carboxylic acid (2H-tetrazol-5-yl)-amide]: 6.56. With `COc1ccc2sc(C(=O)Nc3nn[nH]n3)c(Oc3cccc(C(C)=O)c3)c2c1` [Example A.7, 3-(3-Acetyl-phenoxy)-5-methoxy-benzo[b]thiophene-2-carboxylic acid (2H-tetrazol-5-yl)-amide], the pIC50 is 6.77. With `COc1cc2sc(C(=O)Nc3nnn[nH]3)c(OCC(c3ccccc3)c3ccccc3)c2cc1OC` [Example C.13, 3-(2,2-Diphenyl-ethoxy)-5,6-dimethoxy-benzo[b]thiophene-2-carboxylic acid (1H-tetrazol-5-yl)-amide], the pIC50 was 6.01. For `COc1cc2sc(C(=O)Nc3nn[nH]n3)c(Oc3cccc(C(C)(C)C)c3)c2cc1C` [Example D.7, 3-(3-tert-Butyl-phenoxy)-6-methoxy-5-methyl-benzo[b]thiophene-2-carboxylic acid (2H-tetrazol-5-yl)-amide], the negative-log IC50 (pIC50) was 6.64.

For the molecule `COc1cc2c(Oc3ccc(C4CCCCCC4)cc3)c(C(=O)Nc3nn[nH]n3)sc2cc1C` [Example B.57, 3-(4-cycloheptyl-phenoxy)-5-methoxy-6-methyl-benzo[b]thiophene-2-carboxylic acid (2H-tetrazol-5-yl)amide], the pIC50 was 7.40.

As to `CCc1ccccc1Oc1c(C(=O)Nc2nn[nH]n2)sc2ccc(OC)cc12` [Example A.15, 3-(2-Ethyl-phenoxy)-5-Methoxy-benzo[b]thiophene-2-carboxylic acid (2H-tetrazol-5-yl)-amide], the pIC50 is 6.92. With “3-{4-[3-(4-Cyclohexyl)sulfanylpropyl]phenoxy}-5-methoxy-6-methylbenzo[b]thiophene-2-carboxylic acid(1H-tetrazolyl)amide trifluroacetic acid salt [Example D.9]”, the negative logarithm of the IC50 (pIC50) is 6.62. As to “3-(3,4-Di-tert-butyl-phenoxy)-5-methoxy-6-methyl-benzo[b]thiophene-2-carboxylic acid (2H-tetrazol-5-yl)-amide [Example B.23]”, the pIC50 was 5.63. For `COc1cc2sc(C(=O)Nc3nnn[nH]3)c(OCc3cccc4ccccc34)c2cc1OC` [Example C.22, 5,6-Dimethoxy-3-(naphthalen-1-ylmethoxy)-benzo[b]thiophene-2-carboxylic acid (1H-tetrazol-5-yl)-amide], the negative logarithm of the IC50 (pIC50) was 6.54. The same measure for `COc1cc2c(Oc3ccc(-c4ccccc4)cc3)c(C(=O)Nc3nn[nH]n3)sc2cc1C` [Example B.20, 3-(Biphenyl-4-yloxy)-5-methoxy-6-methyl-benzo[b]thiophene-2-carboxylic acid (2H-tetrazol-5-yl)-amide]: 7.11; for `CCOc1ccc(Oc2c(C(=O)Nc3nn[nH]n3)sc3cc(OC)c(C)cc23)cc1` [Example D.5, 3-(4-Ethoxy-phenoxy)-6-methoxy-5-methyl-benzo[b]thiophene-2-carboxylic acid (2H-tetrazol-5-yl)-amide]: 6.63; for `COc1cc2c(Oc3ccc(C(C)c4ccccc4)cc3)c(C(=O)Nc3nn[nH]n3)sc2cc1C` (stereo not shown) [Example B.30, 5-Methoxy-6-methyl-3-[4-(1-phenyl-ethyl)-phenoxy]-benzo[b]thiophene-2-carboxylic acid (2H-tetrazol-5-yl)-amide]: 7.54. In the case of `COc1ccc2sc(C(=O)Nc3nn[nH]n3)c(Oc3cccc(N4CCOCC4)c3)c2c1` [Example A.12, 5-Methoxy-3-(3-morpholin-4-yl-phenoxy)-benzo[b]thiophene-2-carboxylic acid (2H-tetrazol-5-yl)-amide], the pIC50 is 6.31.

For `COc1cc2sc(C(=O)Nc3nnn[nH]3)c(OCCCc3ccccc3)c2cc1OC` [Example C.33, 5,6-Dimethoxy-3-(3-phenyl-propoxy)-benzo[b]thiophene-2-carboxylic acid (1H-tetrazol-5-yl)-amide], the negative logarithm of the IC50 (pIC50) was 6.94. The same measure for `CCc1cccc(Oc2c(C(=O)Nc3nn[nH]n3)sc3cc(C)c(OC)cc23)c1` [Example B.2, 3-(3-Ethyl-phenoxy)-5-Methoxy-6-methyl-benzo[b]thiophene-2-carboxylic acid (2H-tetrazol-5-yl)-amide]: 7.74; for `COc1cc2sc(C(=O)Nc3nnn[nH]3)c(OCc3cccc(OCC4CCCCC4)c3)c2cc1OC` [Example C.26, 3-(3-Cyclohexylmethoxy-benzyloxy)-5,6-dimethoxy-benzo[b]thiophene-2-carboxylic acid (1H-tetrazol-5-yl)-amide]: 6.67; for `COc1cc2sc(C(=O)Nc3nnn[nH]3)c(OCc3ccc(C4CCCCC4)cc3)c2cc1OC` [Example C.30, 3-(4-Cyclohexyl-benzyloxy)-5,6-dimethoxy-benzo[b]thiophene-2-carboxylic acid (1H-tetrazol-5-yl)-amide]: 6.87.
